The nature of data set [1]: Equilibrium solubility of crystalline ITZ. The data set is classed as physicochemical. Conditions: thermodynamic from solid.
The conditions of data set [2]: pH 6.8 buffer without addition of 0.17% SDS; cited from earlier work.

≈ marks a conversion by molar mass, not a printed value.

Turning to `CCC(C)n1ncn(-c2ccc(N3CCN(c4ccc(OCC5COC(Cn6cncn6)(c6ccc(Cl)cc6Cl)O5)cc4)CC3)cc2)c1=O` (stereo not drawn) [ITZ, itraconazole], the solubility (thermodynamic) in data set [1] (acidic media, pH 1.2, simulated gastric fluid) was 4.4 µg/mL (≈ 6.24 µM). This compound returned a solubility at 18 h in data set [1] (pH 6.8 phosphate buffer with 0.17% SDS, aqueous with cosolvent or surfactant or cyclodextrin, pH 6.8 media with 0.17% SDS, 37.2° C.) of 14 µg/mL (≈ 19.8 µM). In addition, the equilibrium solubility result in data set [2] is “about 1 ng/mL”.

One may read the solubility (thermodynamic) as solubility found after equilibrating the solid with the medium. As usually defined, the solubility is the dissolved amount per volume that the medium holds.
